Reference: PMC10945559, “Forgotten Natural Products: Semisynthetic Development of Blasticidin S As an Antibiotic Lead” (ACS Medicinal Chemistry Letters, 2024)
In brackets after ≈: the same amount, converted by molar mass. Read-outs that look alike come from different tables or passages of the source.

Columns and labels:
[1] = test system: methicillin-resistant S. aureus (MRSA) ATCC 43300; assay: Broth microdilution antibacterial assay; type: cell-based, Staphylococcus aureus; settings: for Selectivity index (CC50/IC50): MRC-5 CC50 / MRSA IC50; for IC50 / MIC: Staphylococcus aureus; for IC50: average of two biological replicates ± S.D., read-out: IC50
Description: (§1) Antibacterial Assay Procedure
(§2) Broth Microdilution Assays
(§3) Media and solutions were autoclaved or sterile filtered prior to use and manipulations were carried out in a laminar flow hood. Antibacterial testing was performed in polypropylene 96 -well flat bottom plates. The minimal inhibitory concentration of blasticidin S ( 1) hydrochloride, P10 (2), and derivatives 15–22 were assessed against Staphylococcus aureus ΔNorA, S. aureus 8810, methicillin-resistant S. aureus (MRSA) ATCC 43300, Enterococcus faecalis ATCC 29212, vancomycin-resistant Enterococcus, Klebsiella pneumoniae ATCC 29665, Pseudomonas aeruginosa, and Acinetobacter baumannii ATCC 17978 using serial dilutions. Doxycycline (Gold Bio) as a positive control and the vehicle as a negative control. Stock solutions of each compound were prepared at 5.12 mg/mL in 50% DMSO/water and serially diluted in 50% DMSO/water to create master plates. From the master plates, 10 μL of each dilution was applied to test plates using a Bravo automated liquid transfer system (Agilent). Bacteria previously grown overnight (37 °C, 120 – 200 RPM), in LB broth were diluted to an OD600 of 0.0 5 in cation-adjusted Mueller-Hinton broth, grown to an OD600 of ~0.5, and diluted to an OD600 of 0.004 in cation-adjusted Mueller-Hinton broth. These diluted cultures were applied to the test plates (190 μL per test well) resulting in final concentrations of the test compounds of 256–2 μg/mL. Growth controls (wells with inoculated media but no vehicle or test compounds) were included to assess any potential toxicity from the vehicle. The plates were incubated at 37 °C for 16–18 h, except for VRE and E. faecalis, which were incubated at 37 °C for 24 h. Inhibition was determined by measuring the optical density at 600 nm (OD600) with a Cytation 3 plate reader (BioTek). The optical density measurements were normalized to the positive and negative controls and the vehicle and growth controls were compared and found to be indistinguishable, indicating no toxicity from the vehicle used. The MIC was the lowest concentration that inhibited >90% of growth. Two biological replicates were performed in duplicate. MIC values are reported […]
(§4) as a range from biological replicates. Inhibition curves were generated using Prism (GraphPad).
(§5) The IC50 values reported in Table 2 are the average of the two biological replicates ± standard […]
(§6) Cytotoxicity Assay Procedure
(§7) Human lung fibroblast cells, MRC -5 (CCL-171), were cultured at 37℃ with 5% CO2 and were plated at 5000 cells/well in a 96 -well plate. Compounds 1, 2, and 15-22 were initially prepared at concentrations of 5.12 mg/mL in a vehicle of 50% DMSO. Dilutions of the compounds (4 – 512 μg/mL) were then prepared in growth medium containing Dulbecco’s modified Eagle’s medium (DMEM) with high glucose, L -glutamine, and sodium pyruvate supplemented with 10% fetal bovine serum (FBS), 1% non -essential amino acids, and 0.1% gentamicin sulfate, and 25mM HEPES. The vehicle (50% DMSO) was also prepared via the sa me dilution series to serve as a control. Growth media was removed from the cells and replaced with the same volume of each compound dilution. Cells were incubated for 24 h , after which CellTiter 96® AQueous One Solution Reagent was added to each well as recommended by the manufacturer’s protocol (Promega CellTiter 96 AQueous One Solution Cell Proliferation Assay) and further incubated for 4 h. After incubation, absorbance was measured at 490 nm on an Infinite M plex multimode microplate reader with i -control Tecan software. Viability was calculated by subtracting media only absorbance values and normalizing to the vehicle control at each concentration. The presented data is one assay performed in triplicate that is representative of multiple trials. Data for the 256 and 512 μg/mL concentrations were removed from analysis due to vehicle toxicity […]
(§8) CC50 concentrations were determined via the ED50 Plus v1.0 software (https://archive.org/details/ed50v10_zip).

S. aureus 8810 = assay: Broth microdilution antibacterial assay; type: cell-based, Staphylococcus aureus; settings: for Selectivity index (CC50/IC50): MRC-5 CC50 / S. aureus IC50; for IC50 / MIC: Staphylococcus aureus, 8810; for IC50: average of two biological replicates ± S.D., read-out: IC50
Description: as §1, §2, §3, §4, §5, §6, §7, §8

in vitro = type: cell-based, human; settings: human; MRC-5 (lung fibroblast); 24 h; one biological replicate (n = 3); read-out: CC50 for human cells
Description: as §4, §5, §6, §7, §8
Figure S41. The effect of compounds on cell viability. The lines represent non -linear regression curves, and error bars represent means ± […]
SD (n=3). […]

[2] = test system: vancomycin-resistant Enterococcus (VRE); assay: Broth microdilution antibacterial assay; type: cell-based; settings: for MIC / IC50: Enterococcus; for IC50: average of two biological replicates ± S.D., read-out: IC50; for Selectivity index (CC50/IC50): MRC-5 CC50 / VRE IC50
Description: as §1, §2, §3, §4, §5, §6, §7, §8

Pseudomonas aeruginosa = assay: Broth microdilution antibacterial assay; type: cell-based; settings: for Selectivity index (CC50/IC50): MRC-5 CC50 / P. aeruginosa IC50; for IC50 / MIC: Pseudomonas aeruginosa, P. aeruginosa; for IC50: average of two biological replicates ± S.D., read-out: IC50; for MIC: lowest concentration inhibiting >90% of growth, range from biological replicates, read-out: MIC
Description: as §1, §2, §3, §4, §5, §6, §7, §8

[3] = test system: Klebsiella pneumoniae ATCC 29665; assay: Broth microdilution antibacterial assay; type: cell-based; settings: for IC50 / MIC: Klebsiella pneumoniae, ATCC29665, K. pneumoniae; for IC50: average of two biological replicates ± S.D., read-out: IC50; for MIC: lowest concentration inhibiting >90% of growth, range from biological replicates, read-out: MIC; for Selectivity index (CC50/IC50): MRC-5 CC50 / K. pneumoniae IC50
Description: as §1, §2, §3, §4, §5, §6, §7, §8

[4] = test system: Enterococcus faecalis ATCC 29212; assay: Broth microdilution antibacterial assay; type: cell-based; settings: for MIC / IC50: Enterococcus faecalis, ATCC29212; for IC50: average of two biological replicates ± S.D. (18: one biological replicate), read-out: IC50; for Selectivity index (CC50/IC50): MRC-5 CC50 / E. faecalis IC50
Description: as §1, §2, §3, §4, §5, §6, §7, §8

[5] = test system: Staphylococcus aureus ΔNorA; assay: Broth microdilution antibacterial assay; type: cell-based; settings: for Selectivity index (CC50/IC50): MRC-5 CC50 / S. aureus ΔNorA IC50; for IC50 / MIC: Staphylococcus aureus
Description: as §1, §2, §3, §4, §5, §6, §7, §8

[6] = test system: Acinetobacter baumannii ATCC 17978; assay: Broth microdilution antibacterial assay; type: cell-based; settings: for IC50 / MIC: Acinetobacter baumannii, ATCC17978, A. baumannii; for IC50: average of two biological replicates ± S.D., read-out: IC50; for MIC: lowest concentration inhibiting >90% of growth, range from biological replicates, read-out: MIC; for Selectivity index (CC50/IC50): MRC-5 CC50 / A. baumannii IC50
Description: as §1, §2, §3, §4, §5, §6, §7, §8

[7] = MRSA, lowest concentration inhibiting >90% of growth, range from biological replicates, read-out: MIC
[8] = average MIC, Table S3, read-out: Average Activity against MRSA
[9] = S. aureus, lowest concentration inhibiting >90% of growth, range from biological replicates, read-out: MIC
[10] = average MIC, Table S3, read-out: Average Activity against S. aureus
[11] = VRE, average MIC, Table S3, read-out: Average Activity against VRE
[12] = VRE, 24 h, lowest concentration inhibiting >90% of growth, range from biological replicates, read-out: MIC
[13] = E. faecalis, 24 h, lowest concentration inhibiting >90% of growth, range from biological replicates, read-out: MIC
[14] = average MIC, Table S3, read-out: Average Activity against E. faecalis

SMILES	Selectivity index (CC50/IC50) [1]	IC50 ([1]; MRSA) [µg/mL]	MIC [1, 7] [µg/mL]	MIC [1, 8] [µg/mL]	Selectivity index (CC50/IC50) (S. aureus 8810)	IC50 (S. aureus 8810; S. aureus) [µg/mL]	MIC (S. aureus 8810; [9]) [µg/mL]	MIC (S. aureus 8810; [10]) [µg/mL]	CC50 at 24 h (in vitro) [µg/mL]	MIC [2, 11] [µg/mL]	MIC [2, 12] [µg/mL]	IC50 ([2]; VRE) [µg/mL]	Selectivity index (CC50/IC50) [2]	Selectivity index (CC50/IC50) (Pseudomonas aeruginosa)	IC50 (Pseudomonas aeruginosa) [µg/mL]	MIC (Pseudomonas aeruginosa) [µg/mL]	IC50 [3] [µg/mL]	MIC [3] [µg/mL]	Selectivity index (CC50/IC50) [3]	MIC [4, 13] [µg/mL]	also measured
CN(CC[C@H](N)CC(=O)N[C@H]1C=C[C@H](n2ccc(N)nc2=O)O[C@@H]1C(=O)NCCO)C(=N)N [Compound 21]	4.9	11.8 ± 0.2 (≈ 25.3 µM)	32 to 64 (≈ 68.7 to 137 µM)	48 (≈ 103 µM)	7.1	8.1 ± 0.7 (≈ 17.4 µM)	64 (≈ 137 µM)	64 (≈ 137 µM)	58.1 (≈ 125 µM)	128 (≈ 275 µM)	128 (≈ 275 µM)	15.3 ± 3.3 (≈ 32.9 µM)	3.8	1.7	34.1 ± 0.3 (≈ 73.3 µM)	128 (≈ 275 µM)	19.7 ± 0.5 (≈ 42.3 µM)	64 (≈ 137 µM)	3.0	32 (≈ 68.7 µM)	IC50 ([4]; E. faecalis): 22.3 ± 4 µg/mL (≈ 47.9 µM); MIC [4, 14]: 32 µg/mL (≈ 68.7 µM); Selectivity index (CC50/IC50) [4]: 2.6; Selectivity index (CC50/IC50) [5]: 1.6; IC50 [5]: 35.5 ± 2.5 µg/mL (≈ 76.3 µM); MIC [5]: 256 µg/mL (≈ 550 µM); IC50 [6]: 21.2 ± 0.6 µg/mL (≈ 45.5 µM); MIC [6]: 64 to 128 µg/mL (≈ 137 to 275 µM); Selectivity index (CC50/IC50) [6]: 2.7
CN(CC[C@H](N)CC(=O)N[C@H]1C=C[C@H](n2ccc(N)nc2=O)O[C@@H]1C(=O)NCCc1ccccc1)C(=N)N [Compound 22]	15	4 ± 0.3 (≈ 7.61 µM)	8 to 16 (≈ 15.2 to 30.4 µM)	12 (≈ 22.8 µM)	15	3.8 ± 0.2 (≈ 7.23 µM)	16 (≈ 30.4 µM)	12 (≈ 22.8 µM)	58.4 (≈ 111 µM)	32 (≈ 60.9 µM)	32 (≈ 60.9 µM)	11.1 ± 0.8 (≈ 21.1 µM)	5.2	3.5	16.5 ± 2.1 (≈ 31.4 µM)	64 (≈ 122 µM)	36.9 ± 4.7 (≈ 70.2 µM)	256 (≈ 487 µM)	1.6	8 (≈ 15.2 µM)	increase in potency compared to 1 ([1]; MRSA, MIC): 16 to 32 fold; better activity than the phenethyl ester of the previous study ([1]; MRSA, ester data ref 8): 4- to 8 fold; better activity than the phenethyl ester of the previous study (S. aureus 8810; S. aureus, ester data ref 8): 4- to 8 fold; increase in potency compared to 1 ([2]; VRE, MIC): 8 fold; IC50 ([4]; E. faecalis): 6.1 ± 2.6 µg/mL (≈ 11.6 µM); MIC [4, 14]: 8 µg/mL (≈ 15.2 µM); Selectivity index (CC50/IC50) [4]: 9.6; Selectivity index (CC50/IC50) [5]: 3.0; IC50 [5]: 19.3 ± 0.2 µg/mL (≈ 36.7 µM); MIC [5]: 128 µg/mL (≈ 244 µM); IC50 [6]: 183 ± 19 µg/mL (≈ 348 µM); MIC [6]: > 256 µg/mL; Selectivity index (CC50/IC50) [6]: 0.3
